Counter-ions that a name gives are not always drawn. Like-named read-outs stand apart in the source and are kept apart here.
Target: T1, recombinant human baculovirus-expressed GST-tagged FASN (Homo sapiens, UniProt P49327)
T1 construct: GST
Assay: biochemical

[1] = 5 nM FASN, 150 μM NADPH, 10 μM acetyl-CoA, 25 μM malonyl-CoA, 90 minutes incubation, read-out: IC50 data for Compounds of Formula I, Activity

T1 sequence (P49327 whole entry): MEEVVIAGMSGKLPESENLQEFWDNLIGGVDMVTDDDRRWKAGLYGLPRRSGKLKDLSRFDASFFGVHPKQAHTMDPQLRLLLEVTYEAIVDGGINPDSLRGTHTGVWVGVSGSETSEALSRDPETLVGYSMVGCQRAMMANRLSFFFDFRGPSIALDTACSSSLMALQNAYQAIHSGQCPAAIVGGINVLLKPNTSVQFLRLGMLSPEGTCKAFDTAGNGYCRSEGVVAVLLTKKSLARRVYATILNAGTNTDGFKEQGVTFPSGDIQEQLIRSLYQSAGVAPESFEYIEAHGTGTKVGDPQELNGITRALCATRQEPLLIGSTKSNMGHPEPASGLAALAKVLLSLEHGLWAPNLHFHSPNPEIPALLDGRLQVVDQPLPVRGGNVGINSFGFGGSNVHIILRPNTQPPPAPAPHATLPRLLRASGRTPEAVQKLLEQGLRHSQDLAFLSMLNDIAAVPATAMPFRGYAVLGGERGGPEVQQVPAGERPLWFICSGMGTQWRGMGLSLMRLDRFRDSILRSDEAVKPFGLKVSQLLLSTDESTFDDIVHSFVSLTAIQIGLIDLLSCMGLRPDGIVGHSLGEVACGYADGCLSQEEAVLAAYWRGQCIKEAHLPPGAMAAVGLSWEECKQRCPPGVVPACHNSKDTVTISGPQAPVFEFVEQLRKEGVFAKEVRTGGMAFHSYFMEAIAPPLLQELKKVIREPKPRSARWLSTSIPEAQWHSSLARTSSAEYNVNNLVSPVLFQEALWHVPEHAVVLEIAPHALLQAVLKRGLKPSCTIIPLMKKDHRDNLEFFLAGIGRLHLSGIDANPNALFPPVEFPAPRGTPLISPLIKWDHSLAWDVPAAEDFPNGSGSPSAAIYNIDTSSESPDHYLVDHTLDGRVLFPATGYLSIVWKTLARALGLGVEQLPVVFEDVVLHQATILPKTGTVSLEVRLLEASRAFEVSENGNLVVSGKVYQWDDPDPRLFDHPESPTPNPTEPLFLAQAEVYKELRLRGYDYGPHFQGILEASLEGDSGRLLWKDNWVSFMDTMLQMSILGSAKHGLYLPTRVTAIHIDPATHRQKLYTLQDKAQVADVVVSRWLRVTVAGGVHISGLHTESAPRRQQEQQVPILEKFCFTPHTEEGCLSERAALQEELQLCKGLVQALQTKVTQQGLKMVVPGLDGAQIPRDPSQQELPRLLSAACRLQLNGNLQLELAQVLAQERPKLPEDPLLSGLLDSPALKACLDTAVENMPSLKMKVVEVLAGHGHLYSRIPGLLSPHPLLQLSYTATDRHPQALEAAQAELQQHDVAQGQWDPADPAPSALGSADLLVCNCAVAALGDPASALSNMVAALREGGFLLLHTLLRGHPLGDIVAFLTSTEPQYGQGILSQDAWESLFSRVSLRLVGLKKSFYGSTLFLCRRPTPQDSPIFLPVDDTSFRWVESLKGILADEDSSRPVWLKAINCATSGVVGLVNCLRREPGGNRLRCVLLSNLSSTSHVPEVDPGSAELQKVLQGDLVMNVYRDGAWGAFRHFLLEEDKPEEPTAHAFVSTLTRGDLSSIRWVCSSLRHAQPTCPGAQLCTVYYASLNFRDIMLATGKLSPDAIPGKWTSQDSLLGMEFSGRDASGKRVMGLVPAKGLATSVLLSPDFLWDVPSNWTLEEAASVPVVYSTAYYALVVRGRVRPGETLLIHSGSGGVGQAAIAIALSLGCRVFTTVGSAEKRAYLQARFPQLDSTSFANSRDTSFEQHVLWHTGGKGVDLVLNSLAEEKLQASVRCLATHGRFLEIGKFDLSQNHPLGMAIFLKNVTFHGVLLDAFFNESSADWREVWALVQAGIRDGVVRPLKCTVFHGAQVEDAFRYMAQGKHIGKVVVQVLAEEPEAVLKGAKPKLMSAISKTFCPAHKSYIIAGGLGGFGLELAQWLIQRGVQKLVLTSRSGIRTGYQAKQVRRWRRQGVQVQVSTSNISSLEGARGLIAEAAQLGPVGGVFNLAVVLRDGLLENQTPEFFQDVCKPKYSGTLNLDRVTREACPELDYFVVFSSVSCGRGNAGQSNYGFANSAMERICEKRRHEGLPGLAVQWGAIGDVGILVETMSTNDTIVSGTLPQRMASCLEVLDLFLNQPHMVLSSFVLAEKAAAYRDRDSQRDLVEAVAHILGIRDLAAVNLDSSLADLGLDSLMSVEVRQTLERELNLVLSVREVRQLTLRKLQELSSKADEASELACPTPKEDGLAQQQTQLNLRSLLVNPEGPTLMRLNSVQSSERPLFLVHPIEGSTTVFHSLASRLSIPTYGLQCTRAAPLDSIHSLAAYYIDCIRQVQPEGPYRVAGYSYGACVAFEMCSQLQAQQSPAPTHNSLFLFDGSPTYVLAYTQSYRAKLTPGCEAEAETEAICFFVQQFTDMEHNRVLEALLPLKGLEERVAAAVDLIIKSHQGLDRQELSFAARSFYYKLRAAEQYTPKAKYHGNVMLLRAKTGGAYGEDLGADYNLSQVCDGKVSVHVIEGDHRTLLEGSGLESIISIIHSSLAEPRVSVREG

| SMILES | IC50 [1] [nM] | IC50 [nM] |
| --- | --- | --- |
| O=C(C1CC1)N1CCC2(CCc3cc(-c4cccnc4)ccc3O2)CC1 [Example 222, Cyclopropyl-[6-(3-pyridyl)spiro[chromane-2,4′-piperidine]-1′-yl]methanone, HCl] | 1000 to 10000 | – |
| O=C(C1CC1)N1CCC2(CC1)OCc1cc(-c3cnc4cccnc4c3)ccc1O2 [Example 37, Cyclopropyl-[6-(1,5-naphthyridin-3-yl)spiro[4H-1,3-benzodioxine-2,4′-piperidine]-1′-yl]methanone] | – | 1000 to 10000 |
| CCONC(=O)N1CCC2(CCc3cc(-c4ccc5cnc(C)cc5c4)ccc3O2)CC1 [Example 207, N-Ethoxy-6-(3-methyl-6-isoquinolyl)spiro[chromane-2,4′-piperidine]-1′-carboxamide] | 1 to 99 | – |
| CCONC(=O)N1CCC2(CC1)OCc1cc(-c3cnc4ccccc4c3C)ccc1O2 [Example 139, N-Ethoxy-6-(4-methyl-3-quinolyl)spiro[4H-1,3-benzodioxine-2,4′-piperidine]-1′-carboxamide] | – | 1 to 99 |
| CCC(=O)N1CCC2(CCc3cc(-c4ccc5cccnc5c4C)ccc3O2)CC1 [Example 6, 1-[6-(8-Methyl-7-quinolyl)spiro[chromane-2,4′-piperidine]-1′-yl]propan-1-one] | 1 to 99 | – |
| O=C(NOC1CCCCO1)N1CCC2(CCc3cc(-c4cc5ccccc5cn4)ccc3O2)CC1 (stereo not shown) [Example 146, 6-(3-Isoquinolyl)-N-tetrahydropyran-2-yloxy-spiro[chromane-2,4′-piperidine]-1′-carboxamide] | 100 to 999 | – |
| Cc1cc(-c2ccc3c(c2)CCC2(CCN(C(=O)[C@H]4CCCO4)CC2)O3)cc2cccnc12 [Example 20, [6-(8-Methyl-6-quinolyl)spiro[chromane-2,4′-piperidine]-1′-yl]-[(2R)-tetrahydrofuran-2-yl]methanone] | 1 to 99 | – |
| CCC(=O)N1CCC2(CC1)OCc1cc(-c3ccc4cccnc4c3Cl)ccc1O2 [Example 57, 1-[6-(8-Chloro-7-quinolyl)spiro[4H-1,3-benzodioxine-2,4′-piperidine]-1′-yl]propan-1-one] | – | 1 to 99 |
| CONC(=O)N1CCC2(CCc3cc(-c4cc5ccccc5cn4)ccc3O2)CC1 [Example 148, 6-(3-Isoquinolyl)-N-methoxy-spiro[chromane-2,4′-piperidine]-1′-carboxamide] | 1 to 99 | – |
| Cc1c(-c2cc(F)c3c(c2)CCC2(CCN(C(N)=O)CC2)O3)ccc2cccnc12 [Example 237, 8-Fluoro-6-(8-methyl-7-quinolyl)spiro[chromane-2,4′-piperidine]-1′-carboxamide] | 1 to 99 | – |
| CCCNC(=O)N1CCC2(CCc3cc(-c4ccc5c(C)nccc5c4)ccc3O2)CC1 [Example 188, 6-(1-methyl-6-isoquinolyl)-N-propyl-spiro[chromane-2,4′-piperidine]-1′-carboxamide] | 1 to 99 | – |
| Cc1c(-c2ccc3c(c2)CCC2(CCN(C(=O)C4CC4)CC2)O3)ccc2cccnc12 [Example 7, Cyclopropyl-[6-(8-methyl-7-quinolyl)spiro[chromane-2,4′-piperidine]-1′-yl]methanone, HCl] | 1 to 99 | – |
| CCC(=O)N1CCC2(CC1)CC(O)c1cc(-c3cnc4ccccc4c3)ccc1O2 (stereo not shown) [Example 42, 1-[4-Hydroxy-6-(3-quinolyl)spiro[chromane-2,4′-piperidine]-1′-yl]propan-1-one] | 100 to 999 | – |
| NC(=O)N1CCC2(CCc3cc(-c4cnc5ccccc5c4)ccc3O2)CC1 [Example 72, 6-(3-Quinolyl)spiro[chromane-2,4′-piperidine]-1′-carboxamide] | 100 to 999 | – |
| Cc1c(-c2ccc3c(c2)COC2(CCN(C(=O)C4CC4)CC2)O3)ccc2cccnc12 [Example 54, Cyclopropyl-[6-(8-methyl-7-quinolyl)spiro[4H-1,3-benzodioxine-2,4′-piperidine]-1′-yl]methanone] | – | 1 to 99 |
| Cc1c(-c2ccc3c(c2)CCC2(CCN(C(=O)NOC(C)C)CC2)O3)cnc2ccccc12 [Example 193, N-isopropoxy-6-(4-methyl-3-quinolyl)spiro[chromane-2,4′-piperidine]-1′-carboxamide] | 1 to 99 | – |
| CCC(=O)N1CCC2(CCc3cc(-c4ccc5c(C)nccc5c4)ccc3O2)CC1 [Example 24, 1-[6-(1-Methyl-6-isoquinolyl)spiro[chromane-2,4′-piperidine]-1′-yl]propan-1-one] | 1 to 99 | – |
| CCC(=O)N1CCC2(CC1)OCc1cc(-c3ccncc3)ccc1O2 [Example 232, 1-[6-(4-Pyridyl)spiro[4H-1,3-benzodioxine-2,4′-piperidine]-1′-yl]propan-1-one, HCl] | – | 1000 to 10000 |
| CCONC(=O)N1CCC2(CC1)OCc1cc(-c3ccc4cnc(C)cc4c3)ccc1O2 [Example 203, N-Ethoxy-6-(3-methyl-6-isoquinolyl)spiro[4H-1,3-benzodioxine-2,4′-piperidine]-1′-carboxamide] | – | 1 to 99 |
| CCNC(=O)N1CCC2(CCc3cc(-c4ccc5nccn5c4C)ccc3O2)CC1 [Example 110, N-Ethyl-6-(5-methylimidazo[1,2-a]pyridin-6-yl)spiro[chromane-2,4′-piperidine]-1′-carboxamide] | 1 to 99 | – |

| SMILES | IC50 [1] [nM] | IC50 [nM] |
| --- | --- | --- |
| CCC(=O)N1CCC2(CC1)OCc1cc(-c3ccc4c(C)nccc4c3)ccc1O2 [Example 21, 1-[6-(1-Methyl-6-isoquinolyl)spiro[4H-1,3-benzodioxine-2,4′-piperidine]-1′-yl]propan-1-one] | – | 1 to 99 |
| CCC(=O)N1CCC2(CCc3cc(-c4ccc5nccn5c4C)ccc3O2)CC1 [Example 26, 1-[6-(5-methylimidazo[1,2-a]pyridin-6-yl)spiro[chromane-2,4′-piperidine]-1′-yl]propan-1-one] | 100 to 999 | – |
| CONC(=O)N1CCC2(CCc3cc(-c4cnc5ccccc5c4C)ccc3O2)CC1 [Example 192, N-Methoxy-6-(4-methyl-3-quinolyl)spiro[chromane-2,4′-piperidine]-1′-carboxamide] | 1 to 99 | – |
| CCC(=O)N1CCC2(CCc3cc(-c4ccccn4)ccc3O2)CC1 [Example 215, 1-[6-(2-Pyridyl)spiro[chromane-2,4′-piperidine]-1′-yl]propan-1-one, HCl] | 1000 to 10000 | – |
| NC(=O)N1CCC2(CCc3cc(-c4ccc5scnc5c4)ccc3O2)CC1 [Example 83, 6-(1,3-Benzothiazol-5-yl)spiro[chromane-2,4′-piperidine]-1′-carboxamide] | 100 to 999 | – |
| CCONC(=O)N1CCC2(CC1)OCc1cc(-c3ccc4cccnc4c3C)ccc1O2 [Example 121, N-Ethoxy-6-(8-methyl-7-quinolyl)spiro[4H-1,3-benzodioxine-2,4′-piperidine]-1′-carboxamide] | – | 1 to 99 |
| Cc1c(-c2ccc3c(c2)COC2(CCN(C(=O)[C@H]4CCCO4)CC2)O3)ccc2cccnc12 [Example 50, [6-(8-Methyl-7-quinolyl)spiro[4H-1,3-benzodioxine-2,4′-piperidine]-1′-yl]-[(2R)-tetrahydrofuran-2-yl]methanone] | – | 1 to 99 |
| CCNC(=O)N1CCC2(CC1)Cc1cc(-c3cnc4ccccc4c3C)ccc1O2 [Example 160, N-Ethyl-5-(4-methyl-3-quinolyl)spiro[3H-benzofuran-2,4′-piperidine]-1′-carboxamide] | 1000 to 10000 | – |
| Cc1c(-c2ccc3c(c2)CCC2(CCN(C(=O)NC(C)C)CC2)O3)ccc2ccnn12 [Example 113, N-Isopropyl-6-(7-methylpyrazolo[1,5-a]pyridin-6-yl)spiro[chromane-2,4′-piperidine]-1′-carboxamide] | 100 to 999 | – |
| O=C(NOC1CCCCO1)N1CCC2(CC1)OCc1cc(-c3cc4ccccc4cn3)ccc1O2 (stereo not shown) [Example 144, 6-(3-Isoquinolyl)-N-tetrahydropyran-2-yloxy-spiro[4H-1,3-benzodioxine-2,4′-piperidine]-1′-carboxamide] | – | 100 to 999 |
| O=C(C1CC1)N1CCC2(CCc3cc(-c4ccc5cccnc5c4Cl)ccc3O2)CC1 [Example 10, [6-(8-Chloro-7-quinolyl)spiro[chromane-2,4′-piperidine]-1′-yl]-cyclopropyl-methanone, HCl] | 1 to 99 | – |
| CONC(=O)N1CCC2(CC1)Cc1cc(-c3ccc4cccnc4c3C)ccc1O2 [Example 153, N-Methoxy-5-(8-methyl-7-quinolyl)spiro[3H-benzofuran-2,4′-piperidine]-1′-carboxamide] | 1000 to 10000 | – |
| Cc1c(-c2cc(Cl)c3c(c2)CCC2(CCN(C(N)=O)CC2)O3)ccc2cccnc12 [Example 249, 8-chloro-6-(8-methyl-7-quinolyl)spiro[chromane-2,4′-piperidine]-1′-carboxamide] | 1000 to 10000 | – |
| CCC(=O)N1CCC2(CCc3cc(-c4ccc5cccnc5c4OC)ccc3O2)CC1 [Example 19, 1-[6-(8-Methoxy-7-quinolyl)spiro[chromane-2,4′-piperidine]-1′-yl]propan-1-one] | 1 to 99 | – |
| Cc1c(-c2ccc3c(c2)CC2(CCN(C(N)=O)CC2)O3)ccc2cccnc12 [Example 152, 5-(8-Methyl-7-quinolyl)spiro[3H-benzofuran-2,4′-piperidine]-1′-carboxamide] | 1 to 99 | – |
| Cc1cccc2cc(-c3ccc4c(c3)CCC3(CCN(C(=O)[C@H]5CCCO5)CC3)O4)cnc12 [Example 14, [6-(8-Methyl-3-quinolyl)spiro[chromane-2,4′-piperidine]-1′-yl]-[(2R)-tetrahydrofuran-2-yl]methanone, HCl] | 1 to 99 | – |
| CCC(=O)N1CCC2(CCc3cc(-c4ccncc4)ccc3O2)CC1 [Example 226, 1-[6-(4-Pyridyl)spiro[chromane-2,4′-piperidine]-1′-yl]propan-1-one, HCl] | 1000 to 10000 | – |
| Cc1c(-c2ccc3c(c2)CCC2(CCN(C(=O)NOCC(C)C)CC2)O3)ccc2cccnc12 [Example 104, N-Isobutoxy-6-(8-methyl-7-quinolyl)spiro[chromane-2,4′-piperidine]-1′-carboxamide] | 100 to 999 | – |
| Cc1nccc2cc(-c3ccc4c(c3F)CCC3(CCN(C(N)=O)CC3)O4)ccc12 [Example 239, 5-Fluoro-6-(1-methyl-6-isoquinolyl)spiro[chromane-2,4′-piperidine]-1′carboxamide] | 1000 to 10000 | – |
| CONC(=O)N1CCC2(CC1)OCc1cc(-c3ccc4cccnc4c3C)ccc1O2 [Example 122, N-Methoxy-6-(8-methyl-7-quinolyl)spiro[4H-1,3-benzodioxine-2,4′-piperidine]-1′-carboxamide] | – | 1 to 99 |

From US12448392B2, “Spiropiperidine derivatives” (89BIO LTD, priority 2016, dated 2025)
